The test system of data set [1] is A549. Description: cells. To be noted: Homo sapiens, A549, 72 h.
Description: Antiproliferative activity against human A549 cells assessed as reduction in cell viability after 72 hrs by MTT assay
For data set [2], the system named is SW-620. In words: Antiproliferative activity against human SW620 cells assessed as reduction in cell viability after 72 hrs by MTT assay. It counts as functional, cell-based. Conditions: SW-620, 72 h. (Formazan colour is commonly taken as a measure of viable cells.)
The test system of data set [3] is KB. Description: Antiproliferative activity against human KB cells assessed as reduction in cell viability after 72 hrs by MTT assay. It counts as functional, cell-based.
Data set [4] deals with KB. In words: Inhibition of colony formation in human KB cells at 100 nM after 10 to 14 days by methylene blue staining based assay. The class given is functional, cell-based.
Data set [5] addresses T1, Dihydrofolate reductase (Homo sapiens, UniProt P00374).
T1 sequence (P00374 whole entry): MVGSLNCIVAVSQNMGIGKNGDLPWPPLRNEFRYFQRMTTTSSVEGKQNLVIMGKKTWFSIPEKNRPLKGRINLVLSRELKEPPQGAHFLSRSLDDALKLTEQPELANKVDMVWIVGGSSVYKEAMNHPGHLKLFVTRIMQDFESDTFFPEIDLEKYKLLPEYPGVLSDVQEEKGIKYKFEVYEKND
In words: Inhibition of recombinant human DHFR using dihydrofolic acid as substrate in presence of NADPH after 15 mins by microplate reader analysis.

Data set [6] has as its target T2, Dihydrofolate reductase (Homo sapiens) (UniProt P00374).
T2 sequence (whole entry): T1 sequence (P00374 whole entry)
In words: Potency index, ratio of IC50 for methotrexate to test compound IC50 for inhibition of recombinant human DHFR.

For data set [7], the system named is KB. Description: Cell cycle arrest in human KB cells assessed as accumulation at S phase at 10 uM after 96 hrs by RNase-1 A/propidium iodide staining-based flow cytometric analysis (reference value: 48.26%). It counts as functional. A general note: Flow cytometry measures light scatter and fluorescence of single cells or particles in a stream.
Data set [8] relates to KB. Description: Antiproliferative activity against human KB cells at 0.01 to 1 uM in presence of adenosine. It counts as functional, cell-based.
The nature of data set [9]: Selectivity index, ratio of IC50 for HUVEC to IC50 for human KB cells. The class given is toxicity. Conditions: HUVEC and KB cells, read-out: Ratio IC50.
For data set [10], the system named is KB. In words: Cell cycle arrest in human KB cells assessed as accumulation at G2 phase at 10 uM after 96 hrs by RNase-1 A/propidium iodide staining-based flow cytometric analysis (reference value: 9.06%). It counts as functional.
Data set [11] deals with KB. In words: Potency index, ratio of IC50 for pemetrexed to IC50 for test compound for antiproliferative activity against human KB cells after 72 hrs by MTT assay. The class given is functional.
Data set [12] deals with SW-620. Description: Potency index, ratio of IC50 for pemetrexed to IC50 for test compound for antiproliferative activity against human SW620 cells after 72 hrs by MTT assay. It counts as functional.
Data set [13] concerns A549. Description: Potency index, ratio of IC50 for pemetrexed to IC50 for test compound for antiproliferative activity against human A549 cells after 72 hrs by MTT assay. It counts as functional.
Data set [14] concerns KB. Description: Inhibition of colony formation in human KB cells at 100 nM after 10 to 14 days by methylene blue staining based assay relative to untreated control. The class given is functional.
For data set [15], the system named is A549. In words: Potency index, ratio of IC50 for methotrexate to IC50 for test compound for antiproliferative activity against human A549 cells after 72 hrs by MTT assay. It counts as functional.
For data set [16], the system named is KB. In words: Cell cycle arrest in human KB cells assessed as accumulation at G1 phase at 10 uM after 96 hrs by RNase-1 A/propidium iodide staining-based flow cytometric analysis (reference value: 42.69%). It counts as functional.
The test system of data set [17] is KB. Description: Antiproliferative activity against human KB cells at 0.01 to 1 uM in presence of AICA. The class given is functional, cell-based.
In data set [18] the test system is KB. Description: Antiproliferative activity against human KB cells at 0.01 to 1 uM in presence of thymidine. It counts as functional, cell-based.
For data set [19], the system named is HUVEC. Description: Cytotoxicity against HUVEC assessed as reduction in cell viability after 72 hrs by MTT assay. Conditions: Homo sapiens. The class given is cell-based.
Data set [20] deals with KB. Description: Antiproliferative activity against human KB cells in presence of AICA and thymidine. The class given is functional, cell-based.
In data set [21] the test system is KB. In words: Antiproliferative activity against human KB cells in presence of AICA. The class given is functional, cell-based.
Data set [22] concerns KB. In words: Antiproliferative activity against human KB cells in presence of adenosine. The class given is functional, cell-based.
Data set [23] relates to KB. In words: Antiproliferative activity against human KB cells in presence of thymidine. It counts as functional, cell-based.
In data set [24] the test system is KB. To be noted: Homo sapiens, 10 nM.
Description: Inhibition of colony formation in human KB cells at 10 nM after 10 to 14 days by methylene blue staining based assay

Active and inactive are the calls of the source. The calls are words filed in the database; no cut-off is given here. Where only a bound is given, the exact number is not on record here.

In general, IC50 refers to the concentration at which inhibition is half-maximal. For orientation: inhibition means the share of the control response that was lost under treatment. On to `Nc1nc2[nH]c(CCNC(=O)c3ccccc3C(=O)NCc3ccccn3)cc2c(=O)[nH]1`, for which the IC50 is no less than 1000 nM in [1], no less than 1000 nM in [2], 90.5 nM in [3] and no less than 1000 nM in data set [5]. The inhibition entry in data set [4] is “Active”.
`Nc1nc2[nH]c(CCNC(=O)c3cccc(C(=O)NCc4ccccn4)c3)cc2c(=O)[nH]1`: the IC50 in data set [1] was no less than 1000 nM; in data set [2] it was no less than 1000 nM; in data set [3], 102 nM; in [5], 9.28 nM. Besides, in [6], the Ratio IC50 turned out to be 2.6. For the same molecule, the inhibition result in [4] was “Active”.
For the molecule `Nc1nc2[nH]c(CCNC(=O)c3ccc(C(=O)NCc4ccncc4)cc3)cc2c(=O)[nH]1`, the IC50 in data set [1] was 12.1 nM; in data set [2] it was 15 nM; in data set [3], 10.2 nM; in [5], 49 nM; in [19] it was 8830 nM. Also, the Activity in data set [7] is 33.74%; in data set [10], 9.66%; in data set [16] it was 56.59%. Moreover, the result in data set [8], in data set [17] and in data set [18] was Active. The selectivity ratio in data set [9] was 867. In addition, the “Ratio IC50” value in data set [11] is 7; in [12] it was 7; in data set [13] it was 104; in data set [15] it was 81. This molecule also had an inhibition at 0.1 µM in data set [14] of 80%.
With `Nc1nc2[nH]c(CCNC(=O)c3cccc(C(=O)NCc4ccncc4)c3)cc2c(=O)[nH]1`, the concentration for half-maximal inhibition (IC50) was no less than 1000 nM in [1], 60.1 nM in [2], 25 nM in data set [3] and 65.9 nM in data set [5]. Also, in data set [4], the inhibition result was “Active”.
Take `Nc1nc2[nH]cc(CCc3ccc(C(=O)N[C@@H](CCC(=O)O)C(=O)O)cc3)c2c(=O)[nH]1` [PEMETREXED]: the outcome in [20], in data set [21], in data set [22] and in [23] was inactive. Besides, the Activity came out at 27.89% in data set [7], 0% in [10] and 72.11% in data set [16]. The IC50 in [2] came to 80.2 nM; in data set [19], 1730 nM. The inhibition result in data set [4] is “Active”.
As to `Nc1nc2[nH]c(CCNC(=O)c3ccc(C(=O)NCc4ccccn4)cc3)cc2c(=O)[nH]1`, the IC50 in [1] is 18.9 nM; in data set [2], 15.2 nM; in data set [3], 23 nM; in [5], 29.3 nM; in [19], 5930 nM. Moreover, the Activity in data set [7] was determined as 24.75%; in data set [10], 9.33%; in data set [16], 65.92%. Also, the result in data set [8], in data set [17] and in [18] was Active. Moreover, the selectivity ratio in data set [9] turned out to be 257. For the same molecule, in data set [4], the inhibition entry is “Active”.
Turning to `Nc1nc2[nH]c(CCNC(=O)c3ccccc3C(=O)NCc3ccncc3)cc2c(=O)[nH]1`, the IC50 in [1] was no less than 1000 nM; in data set [2] it was no less than 1000 nM; in data set [3], 89.9 nM; in data set [5], no less than 1000 nM. Further, the inhibition entry in data set [4] is “Active”.
Regarding `Nc1nc2[nH]c(CCNC(=O)c3ccc(C(=O)NCc4cccnc4)cc3)cc2c(=O)[nH]1`, the half-inhibitory concentration (IC50) in data set [1] came out at 12.4 nM; in [2] it was 13.1 nM; in data set [3], 11.2 nM; in data set [5], 37.9 nM; in data set [19], 2970 nM. Further, the Activity in data set [7] is 55.36%; in data set [10] it was 6.26%; in [16] it was 38.38%. In addition, the outcome in [8], in data set [17] and in data set [18] was Active. Further, the selectivity ratio in [9] is 265. The inhibition entry in data set [4] is “Active”.
On to `Nc1nc2[nH]c(CCNC(=O)c3cccc(C(=O)NCc4cccnc4)c3)cc2c(=O)[nH]1`, for which the IC50 was no less than 1000 nM in data set [1], 154 nM in [2], 88.8 nM in data set [3] and 53.4 nM in data set [5]. Besides, in data set [4], the inhibition entry is “Active”.
For `Nc1nc2[nH]c(CCNC(=O)c3ccccc3C(=O)NCc3cccnc3)cc2c(=O)[nH]1` the same measures were no less than 1000 nM, no less than 1000 nM, 56.5 nM, no less than 1000 nM and “Active”.
Consider `CN(Cc1cnc2nc(N)nc(N)c2n1)c1ccc(C(=O)N[C@@H](CCC(=O)O)C(=O)O)cc1` [METHOTREXATE], for which the inhibition result in [24] was “Active”. Moreover, the IC50 was determined as 13.1 nM in data set [2] and 6130 nM in data set [19].

Values taken from ChEMBL document CHEMBL4359818, “Targeting dihydrofolate reductase: Design, synthesis and biological evaluation of novel 6-substituted pyrrolo[2,3-d]pyrimidines as nonclassical antifolates and as potential antitumor agents” (Eur J Med Chem, 2019).
